Assay results: US20240342168A1, “SMALL MOLECULE INHIBITORS FOR ANTI-CANCER COMBINATION THERAPY” (UNIVERSITY OF CAPE TOWN, priority 2021, published 2024)

Key:
p53 = settings: CRM1 inhibition, other cancers, literature; cited from earlier work
C33A = experiment: MTT cell viability / cisplatin IC50 determination; type: cell-based; settings: 48-h treatment, no INI-43 pre-treatment
Procedure: (§1) HeLa, SiHa, CaSki and C33A cell lines were purchased from the American Type Culture Collection (ATCC) and maintained in Dulbecco's Modified Eagle's Medium (DMEM, Gibco, Life Technologies) containing 10% Fetal Bovine Serum (Gibco, Life Technologies), supplemented with 100 U/mL penicillin and 100 μg/mL streptomycin. Cells were cultured at 37° C. in a humidified chamber with 5% CO2. All cell lines were authenticated by DNA profiling using the Cell ID System (Promega, Madison, WI, USA).
(§2) Cells were plated in 96-well plates and subjected to single or CT (2 h INI-43 pre-treatment followed by cisplatin treatment, without removing IN1-43 from the media) for 48 h. Following treatment, MTT (Sigma) was added and 4 h later crystals solubilized using 10% SLS in 0.01 M HCl. Absorbencies were measured at 595 nm and IC50 values determined via plotting [Fa/(1-Fa)] in log scale against log cisplatin concentration, where:
(§3) The half inhibitory concentration was calculated using the formula IC50=10^x-intercept

CaSki = experiment: MTT cell viability / cisplatin IC50 determination; type: cell-based; settings: 48-h treatment, no INI-43 pre-treatment
Procedure: as §1, §2, §3

HeLa = experiment: MTT cell viability / cisplatin IC50 determination; type: cell-based
Procedure: as §1, §2, §3

SiHa = experiment: MTT cell viability / cisplatin IC50 determination; type: cell-based
Procedure: as §1, §2, §3

[1] = system: p53 reporter activity in SiHa cells; experiment: p53-luciferase reporter assay; type: cell-based; settings: single cisplatin treatment
Procedure: (§4) SiHa cells were transfected with 100 ng p65-luciferase reporter construct (containing five copies of the p65-binding site, Promega) or 200 ng p53-luciferase reporter construct (containing thirteen wildtype p53 binding sites, Addgene plasmid #16442, Addgene Plasmid Repository (el-Deiry W S, Tokino T, Velculescu V E, Levy D B, Parsons R, Trent J M, et al. WAF1, a potential mediator of p53 tumor suppression. Cell. 1993; 75(4):817-25) and 10 ng pRL-TK (encoding Renilla luciferase, Promega), using Genecellin transfection reagent (Celtic Molecular Diagnostics). The following day cells were treated with 5 μM INI-43 for 2 h, followed by 30 μM cisplatin for 24 h, and luciferase activity assayed using the Dual-Luciferase Report assay system (Promega), according to the manufacturer's instructions. Luciferase readings were measured using the Veritas™ microplate luminometer (Promega) and normalised to Renilla luciferase from the same extract.

[2] = system: p65 reporter activity in SiHa cells; experiment: p65-luciferase reporter assay; type: cell-based; settings: 30 μM single cisplatin treatment
Procedure: as §4

[3] = system: NFκB-p50 and NFκB-p65 in SiHa cells; experiment: Immunofluorescence of NFκB nuclear localization; type: cell-based
Procedure: SiHa cells were plated on glass coverslips and treated for 24 h before fixation with 4% paraformaldehyde. Cells were permeabilised using 0.5% Triton-X-100/PBS and blocked using 1% BSA/PBST with 0.3 M Glycine. Primary antibody incubations were performed in 1% BSA/PBST, followed by secondary antibody incubation (Cy3 conjugated goat anti-rabbit, Jackson ImmunoResearch). Cell nuclei were counterstained with 0.5 μg/mL DAPI, and images captured using the Zeiss inverted fluorescence microscope under 100× oil immersion.

[4] = system: NFκB-p50 and NFκB-p65 in SiHa cells; experiment: Nuclear/cytoplasmic fractionation and Western blot; type: cell-based; settings: cisplatin treatment
Procedure: For protein extraction, cells were washed with PBS and lysed using RIPA buffer (50 mM Tris-CI, pH 7.4, 150 mM NaCl, 1% (w/v) sodium deoxycholate, 0.1% (v/v) SDS, 1% (v/v) Triton X-100, 2 mM EGTA, 2 mM EDTA, 50 mM NaF, 5 mM Na2P2O7, 1× complete protease inhibitor cocktail (Roche) and 0.1 M Sodium Orthovanadate). For PARP cleavage analysis, dead cells were collected by centrifugation and combined with live cell lysates. Lysates were sonicated, centrifuged, and the supernatant quantified using the BCA Protein Assay Kit (Pierce, Thermo Scientific) according to the manufacturer's instructions. […]
For nuclear/cytoplasmic protein extraction, cells were collected by trypsinization. […] The fractions were quantified using the BCA Protein Assay Kit (Pierce, Thermo Scientific) according to the manufacturer's instructions, followed by western blot analysis.

[5] = system: p53, p21 and Mcl-1 in SiHa cells; experiment: Western blot of p53 and p53 targets; type: cell-based
Procedure: (§5) For protein extraction, cells were washed with PBS and lysed using RIPA buffer (50 mM Tris-CI, pH 7.4, 150 mM NaCl, 1% (w/v) sodium deoxycholate, 0.1% (v/v) SDS, 1% (v/v) Triton X-100, 2 mM EGTA, 2 mM EDTA, 50 mM NaF, 5 mM Na2P2O7, 1× complete protease inhibitor cocktail (Roche) and 0.1 M Sodium Orthovanadate). For PARP cleavage analysis, dead cells were collected by centrifugation and combined with live cell lysates. Lysates were sonicated, centrifuged, and the supernatant quantified using the BCA Protein Assay Kit (Pierce, Thermo Scientific) according to the manufacturer's instructions. Proteins were subjected to Western blot analysis using the following antibodies: rabbit anti-Kpnβ1 (H-300, sc-11,367, Santa Cruz), rabbit anti-β-tubulin (H-235, sc-9104, Santa Cruz), rabbit anti-PARP1/2 antibody (H-250, sc-7150, Santa Cruz), mouse anti-GAPDH (0411, sc-47,724, Santa Cruz), rabbit anti-p21 (H-164, sc-756, Santa Cruz), rabbit anti-Mcl-1 (H-260, sc-20,679, Santa Cruz), mouse anti-cyclin D1 (HD11, sc-246, Santa Cruz), rabbit anti-c-Myc (N-262, sc-764, Santa Cruz), mouse anti-p53 (DO-7, M7001, DakoCytomation), mouse anti-XIAP (610,763, BD Biosciences), and rabbit anti-phospho-Histone H2AX (γH2AX, Ser139, 20E3, #9718, Cell Signal).

[6] = system: cyclin D1, c-Myc and XIAP; experiment: Western blot of NFκB targets; type: cell-based; settings: single cisplatin treatment
Procedure: as §5

[7] = 48-h treatment, no INI-43 pre-treatment
[8] = Kpnβ1 knock-down (si-Kpnβ1) cells
[9] = control siRNA (si-ctrl) transfected cells
[10] = single cisplatin treatment at 30 μM and 60 μM

For `COc1cc(-c2ncn(/C=C\C(=O)OC(C)C)n2)cc(C(F)(F)F)c1` [KPT-185], which “effect on p53 stability” value (p53) is on record?
Its value is “stabilize p53”.

Which results are given for `N.N.[Cl][Pt][Cl]` [cisplatin, reference compound]?
IC50 (C33A): 12.8 µM; IC50 (CaSki): 18.1 µM; IC50 (HeLa; [7]): 18 µM; IC50 (HeLa; [8]): 9.7 µM; IC50 (HeLa; [9]): 24.4 µM; IC50 (SiHa; [7]): 30.8 µM; IC50 (SiHa; [8]): 19.3 µM; IC50 (SiHa; [9]): 30.5 µM; p53 reporter activity [1]: significantly reduced; p65 reporter activity [2]: induced; nuclear fluorescence relative to cytoplasmic fluorescence (Fc (Nu/Cy)) ([3]; single cisplatin treatment): significant increase; nuclear localization of NFκB-p50 and NFκB-p65 ([3]; single cisplatin treatment (30 μM), 24 h): stimulated nuclear localization; levels of NFκB-p50 and NFκB-p65 in the nucleus [4]: increased levels; p53 protein levels ([5]; SiHa, single cisplatin treatment): increased; Mcl-1 levels [5, 10]: decreased; p21 levels [5, 10]: decreased; levels of cyclin D1 and c-Myc [6]: elevated levels

With `CCC(=C/[C@H](C)C/C=C/C(C)=C/[C@@H](C)C(=O)[C@@H](C)[C@H](O)[C@@H](C)C/C(C)=C/C(=O)O)/C=C/[C@@H]1OC(=O)C=C[C@@H]1C` [leptomycin B] as the compound, how does the “effect on p53 stability” value (p53) read?
Its value is “stabilize p53”.
